Data: patent US20040254173A1, “Modulation of dopamine responses with substituted (S)-2,3-benzodiazepines” (priority 2003, published 2004)

Columns and labels:
[1] = tested on: apomorphine-induced hypothermia, stereotypies and climbing; assay: Low Dose Apomorphine Test in the mouse; format: in vivo; conditions: for STEREOTYPY (intensity score), 20 min after apomorphine, mean ± s.e.m. / STEREOTYPY (intensity score), 50 min after apomorphine, mean ± s.e.m.: 4 point scale (0-3); for CLIMBING (No. of mice), 20 minutes after apomorphine / CLIMBING (No. of mice), 50 minutes after apomorphine: 6 mice per group; for Rectal Temperature, 30 min after apomorphine, mean ± s.e.m. / Rectal Temperature, 60 min after apomorphine, mean ± s.e.m. / Rectal Temperature, before apomorphine, mean ± s.e.m.: mouse; for Rectal Temperature, 30 min after apomorphine, mean change from control / Rectal Temperature, 60 min after apomorphine, mean change from control / STEREOTYPY (intensity score), 20 min after apomorphine, mean change from control / STEREOTYPY (intensity score), 50 min after apomorphine, mean change from control: vs vehicle; for Rectal Temperature, before apomorphine, mean ± s.e.m.: 30 min after test substance
Text: Racemic tofisopam, (R)-tofisopam and (S)-tofisopam were investigated in the Low Dose Apomorphine Test in the mouse to evaluate their pro- or anti-dopaminergic activity following intraperitoneal (i.p.) administration of apomorphine. Apomorphine, at a low dose, induces hypothermia, stereotypies and climbing. All three of these symptoms are potentiated by dopaminergic agonists and antagonized by dopamine antagonists, such as classical neuroleptics. The Low Dose Apomorphine Test, thus serves to detect pro- or antidopaminergic activity. The test was performed according to the protocols described by Chermat and Poncelet. See, Chermat R., Poncelet M., “Antagonisme des redressements, des stéréotypies et de l'hypotheimie induits par 1 ou 16 mg.kg-1 d'apomorphine,” J. Pharmacol., 14, 93-97, 1983.
Male mice of Rj: NMRI strain, 23-26 g body weight range were supplied by Elevage Janvier, 53940 Le Genest-Saint-Isle, France. The animals were delivered to the laboratory at least 3 days before the experiment and, upon arrival, were housed 10 per cage in macrolon cages (25×19×13 cm) containing wood shavings (Litalabo-SPPS, 95100 Argenteuil, France) with free access to food (UAR 113-UAR, 91360 Epinay-sur-Orge, France) and tap water (i.e. non-fasted) until tested. The animal house was maintained under artificial lighting (12 hours) between 7.00 and 19.00 in a controlled ambient temperature of 21±1° C., and relative humidity maintained at 40-70%.
The different treatments were equally distributed between the animals. During the experiment, each animal within a cage received the same treatment. Animals within a cage were individually marked on the tail with an indelible pen.
The experiment was conducted blind with treatment vials labeled A, B, C etc., according to a standardized coding procedure. The evaluation of the different treatments was balanced over time by testing successive series of individual animals from each treatment group in a fixed rotation (A, B, C, etc.). Animals were sacrificed at the end of the experiment by exposure to CO2.
Three compounds, racemic tofisopam, (R)-tofisopam and (S)-tofisopam were tested in the Low Dose Apomorphine Test. Each of these three compounds was dosed as a dispersion in 0.2% hydroxypropylmethylcellulose (HPMC) (Sigma), in sterile physiological saline (Laboratoire Aguettant).
Two reference standards were also dosed. Bromocriptine, methanesulfonate (Sigma), a known dopamine agonist, and haloperidol (Sigma), a known dopamine antagonist, were dispersed in 0.2% HPMC in sterile physiological saline.
Apomorphine hydrochloride, the dopamine mimetic employed in the assay, was dissolved in water for injectable preparation (Laboratoire Aguettant). Dosing: All of the dosed substances were administered in a volume of 10 ml/kg. The doses are expressed in mg/kg of supplied substance.
6 mice were studied per group. The test was performed blind.
Racemic tofisopam, (R)-tofisopam and (S)-tofisopam were administered at doses of 16, 32 and 64 mg/kg, administered intraperitonealy (i.p.), 30 minutes prior to administration of apomorphine.
The rectal temperature of the mice was measured prior to apomorphine dosing using a rectal probe (Physitemp Instruments Digital Laboratory Thermometer Model BAT-12). The mice were then placed in individual Plexiglas cages (10×6×4 cm) attached with the opening against a vertical wire grid.
The mice were then injected subcutaneously (s.c.) with apomorphine (1 mg/kg). Rectal temperature was measured 30 and 60 minutes after the injection of apomorphine.
The intensity of stereotypies (sniffing, licking, gnawing), were scored at 20 minutes and 50 minutes after injection of apomorphine on a 4 point scale (0-3). The presence (1) or absence (0) of climbing against the wire grid wall, were also assessed 20 and 50 minutes after injection of apomorphine.
The reference standards bromocriptine (16 mg/kg) and haloperidol (0.5 mg/kg), were administered under the same experimental conditions.

[2] = tested on: central BZ receptors; conditions: cited from earlier work
[3] = biological target: peripheral BZ receptors (Homo sapiens, UniProt P30536); conditions: cited from earlier work
[4] = 16 mg/kg i.p. 30 min before apomorphine 1 mg/kg s.c.
[5] = 32 mg/kg i.p. 30 min before apomorphine 1 mg/kg s.c.
[6] = 64 mg/kg i.p. 30 min before apomorphine 1 mg/kg s.c.

Chain of peripheral BZ receptors (P30536 whole entry): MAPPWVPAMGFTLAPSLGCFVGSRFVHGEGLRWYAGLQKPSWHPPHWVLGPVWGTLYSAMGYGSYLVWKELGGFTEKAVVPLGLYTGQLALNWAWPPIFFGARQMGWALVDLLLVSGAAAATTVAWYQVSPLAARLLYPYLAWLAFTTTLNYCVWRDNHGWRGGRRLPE

SMILES: CCC1C(C)=NN=C(c2ccc(OC)c(OC)c2)c2cc(OC)c(OC)cc21 (racemic) [Racemic tofisopam, racemic-1-(3,4-dimethoxyphenyl)-4-methyl-5-ethyl-7,8-dimethoxy-5H-2,3-benzodiazepine]
- STEREOTYPY (intensity score), 20 min after apomorphine, mean ± s.e.m. [1, 4]: 3.0 ± 0.0
- STEREOTYPY (intensity score), 50 min after apomorphine, mean ± s.e.m. [1, 4]: 0.7 ± 0.2
- CLIMBING (No. of mice), 20 minutes after apomorphine [1, 4]: 6 No. of mice
- CLIMBING (No. of mice), 50 minutes after apomorphine [1, 4]: 3 No. of mice
- Rectal Temperature, 30 min after apomorphine, mean ± s.e.m. [1, 4]: 35.3 ± 0.6 °C
- Rectal Temperature, 60 min after apomorphine, mean ± s.e.m. [1, 4]: 36.9 ± 0.3 °C
- Rectal Temperature, 30 min after apomorphine, mean change from control [1, 4]: +0.2 °C
- Rectal Temperature, 60 min after apomorphine, mean change from control [1, 4]: +0.2 °C
- STEREOTYPY (intensity score), 20 min after apomorphine, mean change from control [1, 4]: +0.8
- STEREOTYPY (intensity score), 50 min after apomorphine, mean change from control [1, 4]: −0.3
- Rectal Temperature, before apomorphine, mean ± s.e.m. ([1]; 16 mg/kg i.p.): 37.3 ± 0.1 °C
- STEREOTYPY (intensity score), 20 min after apomorphine, mean ± s.e.m. [1, 5]: 2.8 ± 0.2
- STEREOTYPY (intensity score), 50 min after apomorphine, mean ± s.e.m. [1, 5]: 0.8 ± 0.3
- CLIMBING (No. of mice), 20 minutes after apomorphine [1, 5]: 6 No. of mice
- CLIMBING (No. of mice), 50 minutes after apomorphine [1, 5]: 5 No. of mice
- Rectal Temperature, 30 min after apomorphine, mean ± s.e.m. [1, 5]: 34.3 ± 0.5 °C
- Rectal Temperature, 60 min after apomorphine, mean ± s.e.m. [1, 5]: 36.6 ± 0.3 °C
- Rectal Temperature, 30 min after apomorphine, mean change from control [1, 5]: −0.8 °C
- Rectal Temperature, 60 min after apomorphine, mean change from control [1, 5]: −0.1 °C
- STEREOTYPY (intensity score), 20 min after apomorphine, mean change from control [1, 5]: +0.6
- STEREOTYPY (intensity score), 50 min after apomorphine, mean change from control [1, 5]: −0.2
- Rectal Temperature, before apomorphine, mean ± s.e.m. ([1]; 32 mg/kg i.p.): 37.1 ± 0.2 °C
- STEREOTYPY (intensity score), 20 min after apomorphine, mean ± s.e.m. [1, 6]: 2.3 ± 0.2
- STEREOTYPY (intensity score), 50 min after apomorphine, mean ± s.e.m. [1, 6]: 1.3 ± 0.2
- CLIMBING (No. of mice), 20 minutes after apomorphine [1, 6]: 6 No. of mice
- CLIMBING (No. of mice), 50 minutes after apomorphine [1, 6]: 4 No. of mice
- Rectal Temperature, 30 min after apomorphine, mean ± s.e.m. [1, 6]: 33.9 ± 0.5 °C
- Rectal Temperature, 60 min after apomorphine, mean ± s.e.m. [1, 6]: 36.3 ± 0.3 °C
- Rectal Temperature, 30 min after apomorphine, mean change from control [1, 6]: −1.2 °C
- Rectal Temperature, 60 min after apomorphine, mean change from control [1, 6]: −0.4 °C
- STEREOTYPY (intensity score), 20 min after apomorphine, mean change from control [1, 6]: +0.1
- STEREOTYPY (intensity score), 50 min after apomorphine, mean change from control [1, 6]: +0.3
- Rectal Temperature, before apomorphine, mean ± s.e.m. ([1]; 64 mg/kg i.p.): 37.2 ± 0.2 °C
- behaviour on apomorphine-induced hypothermia (rectal temperature) ([1]; 64 mg/kg, thirty and sixty minute time points, trend not statistically significant): weak dopamine antagonist
- behaviour on apomorphine-induced stereotypies ([1]; 16 and 32 mg/kg, twenty minute time point, significant only at 16 mg/kg): strong dopamine agonist
- interaction with central BZ receptors [2]: does not interact
- binding to peripheral BZ receptors [3]: binds only weakly
